The values below come from patent US20110230368A1, “High Throughput Assays for TRPM7” (The Queen's Medical Center, priority 2009, published 2011).

Like-named read-outs stand apart in the source and are kept apart here.

In one data set the target is murine TRPM7 (Mus musculus, UniProt Q923J1). As to conditions: for dose dependence of inhibition of TRPM7-mediated fura-2 quench by Mn2+: serial dilutions, 15 min pre-incubation.
Data set [1] concerns the target T1, TRPM7 (Mus musculus, UniProt Q923J1). Nature of the data set: Whole-cell patch-clamp of TRPM7 currents in HEK293-TRPM7. It is filed as cell-based. Further details: FLAG; expressed in transfected cells; host or cells: tetracycline-inducible HEK293 cells (pcDNA4/TO vector). The conditions noted are these: for IC50: read-out: IC50, inhibition of TRPM7 currents. How it is done:
Error bars represent S.E.M. Corresponding I/V relationships are representative currents in response to voltage ramps obtained at 500 s. […] Currents were extracted at +80 mV at 500 s, normalized to the maximal current amplitude before application (200 s), plotted against waixenicin A concentration, and approximated by dose-response fit function (n=8-10). […] Same analysis as in FIG. 9A. Error bars represent S.E.M.
Patch-clamp experiments were performed in the whole-cell configuration at 24° C. All data were acquired with PatchMaster (HEKA) software controlling an EPC-9 amplifier (HEKA, Lambrecht, Germany) and analyzed using FitMaster (HEKA) and IGOR PRO (Wavemetrics, USA). Voltage ramps of 50 ms spanning from −100 to +100 mV were delivered from a holding potential of 0 mV at a rate of 0.5 Hz. Voltages were corrected for liquid junction potentials (10 mV). Currents were filtered at 2.9 kHz and digitized at 100 μs intervals. Current amplitudes were extracted at +80 mV and −80 mV for analysis and display.
To activate TRPM7 currents, intracellular Mg^2+ and Mg-ATP were washed out by perfusion with Mg^2+- and ATP-free internal solution. Whole-cell currents were elicited by voltage ramps from −100 to +100 mV delivered at 0.5 Hz and current amplitudes were extracted at +80 mV and plotted versus time of the experiment. […] The corresponding current-voltage (I/V) relationships are illustrated by representative ramp currents extracted at 500 s. […] Outward and inward TRPM7 currents responded in a similar manner to waixenicin A treatment (FIG. 10A), resulting in the same IC50.
To better mimic physiologic conditions, we clamped the intracellular solution to 700 μM free internal Mg^2+ and only omitted Mg-ATP to achieve TRPM7 activation. […] The corresponding I/V relationships are illustrated by representative ramp currents.
In general terms: The patch-clamp technique gives a direct electrical read-out from membranes.

Data set [2] deals with T1, TRPM7. Further details: host or cells: TRPM7-HEK293 and CHOK1-TRPM7 cells as reported earlier. As to conditions: cited from earlier work.
The mark [3] stands for this setting: read-out: IC50, inhibition of the TRPM7-mediated fura-2 quench by Mn2+, TRPM7-HEK293, 15 min pre-incubation at 37° C., 10 mM MnCl2, endpoint 10 s after MnCl2 addition.

T1 sequence (Q923J1 whole entry): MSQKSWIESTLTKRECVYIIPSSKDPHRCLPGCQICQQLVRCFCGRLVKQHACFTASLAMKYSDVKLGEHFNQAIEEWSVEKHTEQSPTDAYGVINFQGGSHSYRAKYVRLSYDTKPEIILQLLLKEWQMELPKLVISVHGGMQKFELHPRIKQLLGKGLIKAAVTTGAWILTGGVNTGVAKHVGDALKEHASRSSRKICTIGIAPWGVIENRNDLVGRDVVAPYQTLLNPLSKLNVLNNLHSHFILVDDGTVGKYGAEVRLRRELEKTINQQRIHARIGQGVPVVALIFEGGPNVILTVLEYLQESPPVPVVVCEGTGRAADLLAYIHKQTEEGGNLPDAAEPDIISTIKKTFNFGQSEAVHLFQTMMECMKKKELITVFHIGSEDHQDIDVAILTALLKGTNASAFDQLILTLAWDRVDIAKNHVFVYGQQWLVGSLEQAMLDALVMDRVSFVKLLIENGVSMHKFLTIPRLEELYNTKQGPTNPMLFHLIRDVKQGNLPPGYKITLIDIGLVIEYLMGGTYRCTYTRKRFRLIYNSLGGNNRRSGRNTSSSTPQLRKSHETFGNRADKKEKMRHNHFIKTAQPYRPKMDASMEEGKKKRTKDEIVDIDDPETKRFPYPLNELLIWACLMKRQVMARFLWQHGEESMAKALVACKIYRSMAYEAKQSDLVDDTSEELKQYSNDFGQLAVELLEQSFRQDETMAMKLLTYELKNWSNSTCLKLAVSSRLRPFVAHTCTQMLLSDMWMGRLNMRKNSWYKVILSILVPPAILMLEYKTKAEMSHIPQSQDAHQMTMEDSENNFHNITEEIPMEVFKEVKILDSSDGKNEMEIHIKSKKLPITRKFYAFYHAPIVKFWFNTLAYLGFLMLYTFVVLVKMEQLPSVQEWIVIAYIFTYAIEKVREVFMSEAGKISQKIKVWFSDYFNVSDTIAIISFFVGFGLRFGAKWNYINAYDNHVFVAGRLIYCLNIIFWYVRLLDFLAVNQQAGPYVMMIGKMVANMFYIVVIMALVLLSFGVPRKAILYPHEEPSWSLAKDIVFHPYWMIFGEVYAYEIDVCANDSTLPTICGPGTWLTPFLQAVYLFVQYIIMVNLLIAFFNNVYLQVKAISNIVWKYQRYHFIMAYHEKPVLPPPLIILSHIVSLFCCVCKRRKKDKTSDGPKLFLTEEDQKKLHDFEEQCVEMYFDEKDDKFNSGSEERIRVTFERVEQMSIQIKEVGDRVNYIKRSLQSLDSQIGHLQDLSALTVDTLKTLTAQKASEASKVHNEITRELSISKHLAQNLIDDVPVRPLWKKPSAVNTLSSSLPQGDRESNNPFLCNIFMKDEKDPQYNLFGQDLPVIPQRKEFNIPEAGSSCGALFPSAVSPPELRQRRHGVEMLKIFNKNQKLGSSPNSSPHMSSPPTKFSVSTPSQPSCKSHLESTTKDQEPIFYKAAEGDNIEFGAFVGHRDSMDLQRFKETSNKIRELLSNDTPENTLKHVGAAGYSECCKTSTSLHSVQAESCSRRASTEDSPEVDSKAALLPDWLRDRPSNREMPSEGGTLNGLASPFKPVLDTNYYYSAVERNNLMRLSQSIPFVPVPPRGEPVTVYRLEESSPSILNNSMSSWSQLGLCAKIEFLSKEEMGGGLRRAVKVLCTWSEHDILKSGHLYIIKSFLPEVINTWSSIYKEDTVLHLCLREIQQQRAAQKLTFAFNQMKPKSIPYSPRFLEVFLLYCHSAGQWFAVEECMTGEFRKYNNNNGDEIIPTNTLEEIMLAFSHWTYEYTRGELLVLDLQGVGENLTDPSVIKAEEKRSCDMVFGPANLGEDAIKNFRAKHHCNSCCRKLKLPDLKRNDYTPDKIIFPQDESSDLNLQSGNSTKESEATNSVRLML
murine TRPM7, sequence (Q923J1 whole entry): as above
Experimental for murine TRPM7: Wild type (non-transfected) human embryonic kidney (WT-HEK293) cells and tetracycline-inducible HEK293 cells, stably transfected with a FLAG-murine TRPM7/pcDNA4/TO construct (TRPM7-HEK293), were cultured in a humidified incubator, at 37° C. and 5% CO2, in DMEM supplemented with 10% FBS and 2 mM L-glutamine. Wild type HEK293 culture medium was supplemented with 100 U/mL penicillin and 0.10 mg/mL streptomycin. TRPM7-HEK293 culture medium was supplemented with 5 μg/mL blasticidin and 0.4 mg/mL zeocin.
TRPM7 channel conductance was monitored using a FlexStation 3 scanning fluorometer (Molecular Devices, Sunnyvale, Calif.) to monitor the Ca^2+-independent (360 nm excitation/510 nm emission) fura-2 quench by Mn^2+ in TRPM7 overexpressing HEK293 cells. The FlexStation 3 measured the fluorescent signal intensity in relative fluorescence units (RFU), at 1.5 s intervals for 60 s using a beam diameter of 1.5-2.0 mm. Following baseline measurements, Mn^2+ was added extracellularly and changes in cytosolic [Mn^2+] were monitored as the loss of relative fluorescence caused by fura-2 quenching. TRPM7-HEK293 cells (30,000, 60,000 or 120,000 cells/well) were plated in poly-L-lysine coated, black clear-bottom 96-well plates (Greiner Bio-One, Monroe, N.C.). Subsequent TRPM7-expression was induced 2-3 h post plating by the addition of 1 μg/mL tetracycline. The culture medium was completely removed at 16-18 h post induction and replaced with the following fura-2 loading-buffer: KRH buffer supplemented with 2 μM fura-2-AM, with or without 2 mM probenecid, and with or without 0.1-0.3% pluronic F-127. Following variable incubation times (30, 45 and 60 min at 25 or 37° C.) the loading buffer was removed and replaced with assay buffer (KRH). The plates were then transferred to a room temperature (25° C.) or pre-warmed (37° C.) FlexStation which also contained a clear V-bottom 96-well compound plate (Greiner Bio-One) with vehicle or appropriate test substance solutions diluted with KRH. Cells were initially incubated for 15 min with the appropriate test substance solutions. Just prior to the addition of 1 or 10 mM MnCl2 the baseline fluorescence was recorded for 20 s. The Ca^2+-independent, TRPM7-mediated fura-2 quench by Mn^2+ was then recorded for 40 s.
Fluorescence data was collected in SoftMax Pro (Molecular Devices) and processed in Microsoft Excel 2007. Replicate fluorescence traces (time vs. intensity) were averaged and the Z′-factors were calculated. Mean, standard deviation (sdev), and Z′-factors at each time point were plotted using IGOR PRO (Wavemetrics). […] These values were background-corrected (WT-HEK293 signal subtracted) and normalized to vehicle controls.
TRPM7-HEK293 cells and HEK293 cells were plated at 60,000 cells/well. Cells were incubated at 37° C. for 60 min with KRH containing 2 mM probenecid, 0.1% pluronic F-127, and 2 μM fura-2-AM. After a wash step, the cells were pre-incubated with LaCl3 (serial diluted 2:1 from 7.0 mM to 9.6 μM) or 2-APB (serial diluted 2:1 from 500-0.69 μM) at 37° C. for 15 min during baseline measurements.

For orientation: IC50 means the concentration needed to halve the response being measured. For `C=C1CC/C=C(\C)CC[C@@H]2C([C@H](C/C=C(\C)COC(C)=O)OC(C)=O)=CO[C@H](OC(C)=O)[C@@H]12` [waixenicin A], the half-maximal inhibitory concentration (IC50) on murine TRPM7 (read-out: IC50 of the maximal slope of the Mn2+ quench, HEK293-TRPM7, 15 min incubation before 10 mM MnCl2) is 12 µM; on TRPM7 [1] (0 [Mg2+]i, outward currents at +80 mV at 500 s), 7 µM; on TRPM7 [1] (700 μM free internal Mg2+), 0.016 µM. For the same compound, the “dose dependence of inhibition of TRPM7-mediated fura-2 quench by Mn2+” value (“dose dependence of inhibition … by Mn2+” below) on murine TRPM7 is listed as “dose-dependent manner”. In addition, the “inhibition of TRPM7 currents” value against TRPM7 [1] (10 μM for 300 s, +80 mV, Mg2+- and ATP-free internal solution) is reported as “approximately 50%”. Besides, the “TRPM7 current density after application” value on TRPM7 [1] (10 μM for 300 s, +80 mV, Mg2+- and ATP-free internal solution, plateau about 130 pA/pF before) worked out at 67 pA/pF. Further, the “block of TRPM7 current” value at TRPM7 [1] (10 μM, 700 μM free internal Mg2+, Mg-ATP omitted) is recorded as “completely blocked the current”. Further, the “reversibility of inhibitory effect on washout” value on TRPM7 [1] (washout for another 300 s) is reported as “failed to reverse its inhibitory effect”.
Regarding `NCCOB(c1ccccc1)c1ccccc1` [2-APB, 2-aminoethoxydiphenyl borate], the “stability of stock solution in cold storage” value (-20° C., 50 mM in MeOH) is given as “apparent compound degradation over the course of one week”. Also, for the setting “stored at -20° C.”, the “stability of dried film, vacuum packed aliquots” value is “only remained fully potent when used within a two month period”. Also, the IC50 at murine TRPM7 (setting [3]) was 56 µM; on TRPM7 [2] (whole-cell recordings, TRPM7-HEK293 and CHOK1-TRPM7 cells, read-out: IC50, TRPM7 mediated outward current), 160 ± 14 µM. In addition, the “dose dependence of inhibition … by Mn2+” value on murine TRPM7 was “dose dependent inhibition”. In addition, the “inhibition of TRPM7 mediated inward current” value on TRPM7 [2] (100 μM, divalent-free extracellular solutions, TRPM7-HEK293) is 77%.
Take `[Cl][La]([Cl])[Cl]` [La^3+, LaCl3]: the “effect on Mn2+-induced fluorescence quench” value on murine TRPM7 (FIG. 8A, 10 mM MnCl2, HEK293-TRPM7) is reported as “reduced Mn^2+-induced fluorescence quench”. For the same compound, the half-inhibitory concentration (IC50) on murine TRPM7 (setting [3]) came out at 760 µM. On murine TRPM7, the “dose dependence of inhibition … by Mn2+” value is “dose dependent inhibition”. Moreover, the “block of channel conductance” value on TRPM7 [2] (10 μM) is reported as “ineffective”. Further, on TRPM7 [2] (10 mM), the “block of inward TRPM7-mediated currents” value is on record as “almost completely blocked”.
